According to patent publication US20260345573A1, “METHOD OF TREATMENT WITH ILOPERIDONE” (Vanda Pharmaceuticals Inc., priority 2023, published 2026):
“Also recorded” adds a separate entry of the source.

Experiments:
Format in all cases: in vivo, human
[1] = Study 3101: serum urate (uric acid) in subjects with acute schizophrenia, by SLC2A9 rs7442295 genotype
Experimental: (§1) A study is performed to evaluate the efficacy and safety of iloperidone compared with placebo and active control (ziprasidone) in subjects with acute schizophrenia (“Study 3101”). Patients are randomized to receive one of iloperidone at a dose of 24 mg/day given in a divided dose as 12 mg twice daily (bid), active comparator ziprasidone, or placebo. […] Uric acid results are converted to SI units using the conversion 1 mg/dL=59.5 μmol/L.
Results are provided in Table 6 below, including an increase of 28.0 μmol/L for iloperidone compared to a decrease of 4.2 μmol/L in placebo groups.
Patient genotypes are obtained via a commercial 500k SNP Gene Chip Human Mapping Array. To test the hypothesis of altered urate serum levels in association with variants in SLC2A9, linear models for SLC2A9 variants are performed on urate at baseline levels (corrected for PCs, age, sex) followed by samples collected at end of study (EOS).

[2] = Studies 3201 and 3101 (Examples 1 and 2), conclusions on serum urate
Experimental: (§2) A multi-center, randomized, double-blind, placebo-controlled study is performed to evaluate the safety and efficacy of iloperidone for four (4) weeks in the treatment of patients with acute manic episodes associated with bipolar I disorder (“Study 3201”). Patients in the study are randomized to orally receive either iloperidone at a dose of 24 mg/day given in a divided dose as 12 mg twice daily (bid), or matched placebo.
as §1

[3] = Study 3201: serum urate in patients with acute manic episodes associated with bipolar I disorder, by SLC2A9 rs7442295 genotype and sex; conditions: for LS Mean Change (SE) in serum urate from baseline: 24 mg/day oral (12 mg bid)
Experimental: as §2
These increases are illustrated in FIG. 1 using solid data points.
To test the hypothesis of altered urate serum levels in association with variants in the SLC2A9 gene, whole genome sequencing is conducted from blood samples, genotype status is obtained through standard data analysis, and linear models for SLC2A9 variants are performed on urate concentration in samples collected at baseline (corrected for PCs, age, sex) and samples collected at the end of the study (EOS).
As shown in FIGS. 3-4, the rs7442295 variant of interest has a statistically significant effect on iloperidone-induced change in serum urate levels from baseline to Day 28 in patients with bipolar disorder. FIG. 3 illustrates individual patient changes in serum urate (in μmol/L) from baseline to Day 28, grouped according to treatment group (iloperiodone or placebo) and carrier status for variant rs7442295, while FIG. 4 illustrates mean serum levels for at patient evaluations conducted at baseline and Day 28, separated according to treatment group (iloperidone or placebo) and patient carrier status for rs7442295. The significant interaction affecting change is particularly observed between genotype*sex*treatment (full model: Multiple R-squared: 0.09251, Adjusted R-squared: 0.07078, F-statistic: 4.256 on 8 and 334 DF, p=0.00006942).
This observation is statistically significant when comparing genotypes at BOS as well as when comparing GG with AG and AA genotypes between treatment and placebo group in both males and females combined. Table 2 (below) provides mean change from baseline to Day 28 by treatment group and carrier status for variant rs7442295, and Table 3 (below) provides LS mean change in serum urate from baseline to Day 28 evaluations for serum urate by treatment group and carrier status for variant rs7442295) (SD=standard deviation).

In the case of `COc1cc(C(C)=O)ccc1OCCCN1CCC(c2noc3cc(F)ccc23)CC1` [Iloperidone, 1-[4-[3-[4-(6-flouro-1,2-benzisoxazol-3-yl)-1-piperidinyl]propoxy]-3-methoxyphenyl]ethanone], the “Serum urate at Day 0 (SE)” value ([1]; Day 0, iloperidone group, schizophrenia, n=300) is reported as 318.3 (73.19), 300 μmol/L, the “LS Mean Difference (95% CI) in serum urate change vs placebo” value ([1]; Day 14, schizophrenia) is reported as 18.4 (6.55. 29.93) μmol/L and the “LS Mean Change (SE) in serum urate from baseline” value (shortened to “LS Mean Change (SE)”) ([1]; Day 14, 24 mg/day (12 mg bid), schizophrenia, n=276) is reported as 15.5 (58.85), 276 μmol/L. The “LS Mean Difference (95% CI) in serum urate change vs placebo” value ([1]; Day 28, genotype AA) was 10.05 (14.90, 35.97) μmol/L, the “LS Mean Difference (95% CI) in serum urate change vs placebo” value ([1]; Day 28, genotype AG) was 30.02 (−2.86, 57.63) μmol/L and the “LS Mean Difference (95% CI) in serum urate change vs placebo” value ([1]; Day 28, genotype GG) was 52.4 (0.33, 104.45) μmol/L. For the same compound, the “Change from baseline in uric acid relative to ziprasidone arm (in words)” value ([1]; Day 28, schizophrenia) was “more than twice the change from baseline observed in the ziprasidone arm”, the “Fold greater increase from baseline in blood uric acid compared to placebo” value ([1]; Day 28, schizophrenia) was “roughly 4 fold” and the “LS Mean Difference (95% CI) in serum urate change vs placebo” value ([1]; Day 28, schizophrenia) was 23.8 (9.16. 37.96) μmol/L. For the same compound, the “LS Mean Change (SE)” value ([1]; Day 28, iloperidone 24 mg/day (12 mg bid), schizophrenia, n=206) was 28.0 (4.05), 206 μmol/L, the “LS Mean Change (SE)” value ([1]; Day 28, iloperidone 24 mg/day (12 mg bid), schizophrenia, n=206, listed as iloperidone) was 28.0 µmol/L and the “Iloperidone-induced change in serum urate with GG genotype, by sex (in words)” value ([1]; genotype GG, male schizophrenia patients) was “particular pronounced in male schizophrenia patients”. The “Effect on serum urate compared to placebo (in words)” value ([1]; schizophrenia, ANCOVA) was “statistically significant increase in serum urate”, the “Effect on serum urate compared to placebo (in words)” value ([2]; bipolar disorder and schizophrenia) was “associated with increases in serum urate compared to placebo” and the “Increase in serum urate in G/G patients (in words)” value ([2]; genotype G/G, both studies) was “nearly twice as large”. For the same compound, the “Percentage of patients with serum urate above ULN” value ([3]; Baseline, female, genotype AA (4/42), ULN 394 μmol/l) was 9.5%, the “Percentage of patients with serum urate above ULN” value ([3]; Baseline, female, genotype AG (3/39), ULN 394 μmol/l) was 7.7% and the “Percentage of patients with serum urate above ULN” value ([3]; Baseline, female, genotype GG (0/7), ULN 394 μmol/l) was 0.0%. The “Serum urate at baseline (SE)” value ([3]; Baseline, iloperidone group, bipolar mania, n=206) was 323.0 (77.13), 206 μmol/L, the “Percentage of patients with serum urate above ULN” value ([3]; Baseline, male, genotype AA (6/60), ULN 453 μmol/l) was 10.0% and the “Percentage of patients with serum urate above ULN” value ([3]; Baseline, male, genotype AG (1/41), ULN 453 μmol/l) was 2.4%. For the same compound, the “Percentage of patients with serum urate above ULN” value ([3]; Baseline, male, genotype GG (1/12), ULN 453 μmol/l) was 8.3%, the “Percentage of patients with serum urate above ULN” value ([3]; Baseline, male, genotype GG (1/12), ULN 453 μmol/l, listed as iloperidone) was “about 8.3%” and the “LS Mean Difference (95% CI) in serum urate change vs placebo” value ([3]; Day 7, bipolar mania) was 1.3 (−9.29, 11.88) μmol/L. For the same compound, the “LS Mean Change (SE)” value ([3]; Day 7, bipolar mania, n=199) was −2.7 (−4.07), 199 μmol/L, the “LS Mean Difference (95% CI) in serum urate change vs placebo” value ([3]; Day 14, bipolar mania) was 15.3 (4.50, 26.15) μmol/L and the “LS Mean Change (SE)” value ([3]; Day 14, bipolar mania, n=173) was 12.6 (−4.28), 173 μmol/L. For the same compound, the “LS Mean Difference (95% CI) in serum urate change vs placebo” value ([3]; Day 21, bipolar mania) was 21.0 (8.91, 33.18) μmol/L, the “LS Mean Change (SE)” value ([3]; Day 21, bipolar mania, n=157) was 19.1 (−5.24), 157 μmol/L and the “LS Mean Change (SE)” value ([3]; Day 28 (endpoint), bipolar mania, n=142) was 27.2 (−4.93), 142 μmol/L. The “LS Mean Change (SE)” value ([3]; Day 28 (endpoint), bipolar mania, n=142, listed as iloperidone) was 27.2 µmol/L, the “Fold greater increase in serum urate from baseline compared to placebo” value ([3]; Day 28, bipolar mania) was 4 fold and the “LS Mean Difference (95% CI) in serum urate change vs placebo” value ([3]; Day 28, bipolar mania) was 27.1 (14.94, 39.20) μmol/L. The “LS Mean Difference (95% CI) in serum urate change vs placebo” value ([3]; Day 28, genotype AA, female) was 27.85 (2.93, 52.76) μmol/L, the “LS Mean Difference (95% CI) in serum urate change vs placebo” value ([3]; Day 28, genotype AA, male) was 35.52 (12.82, 58.22) μmol/L and the “LS Mean Difference in serum urate change vs placebo” value ([3]; Day 28, genotype AA, 95% CI (14.82, 49)) was 31.91 µmol/L. The “LS Mean Difference (95% CI) in serum urate change vs placebo” value ([3]; Day 28, genotype AG, female) was −7.9 (−34.82, 19.03) μmol/L, the “LS Mean Difference (95% CI) in serum urate change vs placebo” value ([3]; Day 28, genotype AG, male) was 40.79 (14.61, 66.96) μmol/L and the “LS Mean Difference in serum urate change vs placebo” value ([3]; Day 28, genotype AG, 95% CI (−4.18, 33.86)) was 14.84 µmol/L. The “LS Mean Difference (95% CI) in serum urate change vs placebo” value ([3]; Day 28, genotype GG, female) was 3.08 (−50.97, 57.13) μmol/L, the “LS Mean Difference (95% CI) in serum urate change vs placebo” value ([3]; Day 28, genotype GG, male) was 102.96 (48.93, 156.99) μmol/L and the “LS Mean Difference in serum urate change vs placebo” value ([3]; Day 28, genotype GG, 95% CI (18.91, 94.99)) was 56.95 µmol/L. For the same compound, the “Mean change from baseline in serum urate” value ([3]; Day 28, 24 mg/day, all genotypes, bipolar mania) was 33.4 µmol/L, the “LS Mean Difference (95% CI) in serum urate change vs placebo” value ([3]; EOS (LOCF), genotype AA, female) was 15.97 (−6.71, 38.64) μmol/L and the “LS Mean Difference (95% CI) in serum urate change vs placebo” value ([3]; EOS (LOCF), genotype AA, male) was 18.99 (−0.89, 38.86) μmol/L. The “LS Mean Difference (95% CI) in serum urate change vs placebo” value ([3]; EOS (LOCF), genotype AG, female) was −1.4 (−25.85, 23.06) μmol/L, the “LS Mean Difference (95% CI) in serum urate change vs placebo” value ([3]; EOS (LOCF), genotype AG, male) was 19.58 (−2.91, 42.08) μmol/L and the “LS Mean Difference (95% CI) in serum urate change vs placebo” value ([3]; EOS (LOCF), genotype GG, female) was 4.54 (−50.43, 59.52) μmol/L. For the same compound, the “LS Mean Difference (95% CI) in serum urate change vs placebo” value ([3]; EOS (LOCF), genotype GG, male) was 88.45 (38.7, 138.21) μmol/L, the “LS Mean Difference in serum urate change vs placebo” value ([3]; EOS, genotype AA, 95% CI (3.19, 33.28)) was 18.23 µmol/L and the “LS Mean Difference in serum urate change vs placebo” value ([3]; EOS, genotype AG, 95% CI (−8.27, 25.48)) was 8.61 µmol/L. For the same compound, the “LS Mean Difference in serum urate change vs placebo” value ([3]; EOS, genotype GG, 95% CI (18.68, 92.13)) was 55.4 µmol/L, the “Effect on serum urate (in words)” value ([3]; bipolar mania, vs placebo) was “statistically significant increase in serum urate; also recorded: associated with increases in serum urate compared to placebo” and the “Iloperidone-associated increase in serum urate in rs7442295-G/G individuals (in words)” value ([3]; genotype GG, bipolar mania) was “significant in individuals who are homozygous for the rs7442295 (G) allele”. The “Increase in serum urate in G/G patients (in words)” value ([3]; genotype GG, bipolar mania) was “nearly twice as large”, the “Serum urate relative to ULN in G/G individuals treated with iloperidone (in words)” value ([3]; genotype GG, especially males, ULN 453 (male), 394 (female) μmol/l) was “a significant number of individuals (particularly homozygous G/G males) exceed the upper limit of normal (ULN); also recorded: above ULN value in individuals that are homozygous (GG) for the rs7442295 (G) allele” and the “Fold increase in percentage of patients with high urate levels (above ULN)” value ([3]; male, genotype GG, baseline to end of study) was “approximately 4 fold”.
In the case of `O=C1Cc2cc(CCN3CCN(c4nsc5ccccc45)CC3)c(Cl)cc2N1` [ziprasidone], the “LS mean change from baseline to endpoint in serum urate” value ([1]; ziprasidone active comparator arm, schizophrenia) is reported as 13.1 µmol/L and the “Increase in serum urate relative to iloperidone (in words)” value ([1]; ziprasidone arm, schizophrenia) is reported as “approximately half of that seen in with iloperidone treatment”.
